doi:10.1101/2025.02.11.637513v1 (bioRxiv, 2025)
Non-standard residues stand in square brackets, D forms with d. No end group written: not given here. *: point of attachment. Phe(2-Cl) = N[C@@H](Cc1ccccc1Cl)C(=O)O; 2Nal = N[C@@H](Cc1ccc2ccccc2c1)C(=O)O; Phg = N[C@H](C(=O)O)c1ccccc1; Tle = CC(C)(C)[C@H](N)C(=O)O; Bn = c1ccc(C*)cc1

Assays:
Assay in all cases: tetrapeptide-ACC substrate cleavage kinetics
Type in all cases: biochemical
[1] = target: T1, human caspase-9 (Homo sapiens, UniProt P55211); settings: Ac-P4-P3-P2-Asp-ACC substrate, 0.05-500 μM, 20-150 nM enzyme, 37°C, triplicate
T1 sequence (P55211 1-315 limits assumed): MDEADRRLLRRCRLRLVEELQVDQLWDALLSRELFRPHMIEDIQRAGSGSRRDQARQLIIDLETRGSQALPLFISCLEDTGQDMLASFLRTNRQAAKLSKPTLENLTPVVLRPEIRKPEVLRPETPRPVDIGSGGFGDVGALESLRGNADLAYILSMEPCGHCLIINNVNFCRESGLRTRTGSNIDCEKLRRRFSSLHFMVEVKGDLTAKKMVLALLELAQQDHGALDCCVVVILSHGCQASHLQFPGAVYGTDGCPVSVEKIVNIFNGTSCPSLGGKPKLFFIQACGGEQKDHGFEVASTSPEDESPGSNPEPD
T1 sequence (P55211 331-416 limits assumed): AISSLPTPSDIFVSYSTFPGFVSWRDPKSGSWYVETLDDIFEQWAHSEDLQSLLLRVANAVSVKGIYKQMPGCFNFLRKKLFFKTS

[2] = target: T2, human caspase-1 (Homo sapiens, UniProt P29466); settings: Ac-P4-P3-P2-Asp-ACC substrate, 0.05-500 μM, 2-15 nM enzyme, 37°C, triplicate
T2 sequence (P29466 120-297 limits assumed): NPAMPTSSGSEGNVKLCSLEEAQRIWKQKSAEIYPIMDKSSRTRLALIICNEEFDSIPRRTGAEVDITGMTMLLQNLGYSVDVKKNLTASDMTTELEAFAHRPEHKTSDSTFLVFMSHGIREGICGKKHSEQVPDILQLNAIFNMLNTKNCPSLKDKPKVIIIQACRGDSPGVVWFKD
T2 sequence (P29466 317-404 limits assumed): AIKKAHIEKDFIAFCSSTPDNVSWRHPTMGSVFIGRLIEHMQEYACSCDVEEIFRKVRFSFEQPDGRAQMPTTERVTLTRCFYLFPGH

[3] = target: human caspase-8 (Homo sapiens, UniProt Q14790); settings: Ac-P4-P3-P2-Asp-ACC substrate, 0.05-500 μM, 6-42 nM enzyme, 37°C, triplicate
[4] = target: T3, human caspase-7 (Homo sapiens, UniProt P55210); settings: Ac-P4-P3-P2-Asp-ACC substrate, 0.05-500 μM, 40-400 nM enzyme, 37°C, triplicate
T3 sequence (P55210 24-198 limits assumed): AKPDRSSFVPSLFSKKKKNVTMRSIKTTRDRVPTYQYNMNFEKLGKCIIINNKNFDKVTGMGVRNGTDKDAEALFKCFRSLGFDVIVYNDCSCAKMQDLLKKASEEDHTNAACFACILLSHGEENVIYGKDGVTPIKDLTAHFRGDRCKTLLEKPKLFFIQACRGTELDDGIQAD
T3 sequence (P55210 207-303 limits assumed): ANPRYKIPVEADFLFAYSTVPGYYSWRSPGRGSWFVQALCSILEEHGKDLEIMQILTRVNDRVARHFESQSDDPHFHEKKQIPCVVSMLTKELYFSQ

[5] = target: T4, human caspase-4 (Homo sapiens, UniProt P49662); settings: Ac-P4-P3-P2-Asp-ACC substrate, 0.05-500 μM, 35-200 nM enzyme, 37°C, triplicate
T4 sequence (P49662 81-270 limits assumed): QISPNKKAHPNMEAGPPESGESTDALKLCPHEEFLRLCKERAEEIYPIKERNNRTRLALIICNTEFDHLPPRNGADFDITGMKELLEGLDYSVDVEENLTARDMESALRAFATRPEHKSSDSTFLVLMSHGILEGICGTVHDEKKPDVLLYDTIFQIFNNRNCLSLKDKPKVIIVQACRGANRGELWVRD
T4 sequence (P49662 290-377 limits assumed): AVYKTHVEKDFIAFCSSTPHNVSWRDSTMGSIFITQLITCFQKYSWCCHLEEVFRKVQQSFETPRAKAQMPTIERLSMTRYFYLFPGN

[6] = target: T5, human caspase-5 (Homo sapiens, UniProt P51878); settings: Ac-P4-P3-P2-Asp-ACC substrate, 0.05-500 μM, 20-250 nM enzyme, 37°C, triplicate
T5 sequence (P51878 137-327 limits assumed): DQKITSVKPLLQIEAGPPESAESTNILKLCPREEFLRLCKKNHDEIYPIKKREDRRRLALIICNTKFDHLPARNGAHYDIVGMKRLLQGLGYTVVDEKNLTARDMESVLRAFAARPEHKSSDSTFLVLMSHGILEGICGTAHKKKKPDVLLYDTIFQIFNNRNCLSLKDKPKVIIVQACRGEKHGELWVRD
T5 sequence (P51878 347-434 limits assumed): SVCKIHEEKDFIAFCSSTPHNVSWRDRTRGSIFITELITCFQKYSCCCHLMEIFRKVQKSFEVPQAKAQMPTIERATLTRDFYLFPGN

[7] = target: T6, human caspase-3 (Homo sapiens, UniProt P42574); settings: Ac-P4-P3-P2-Asp-ACC substrate, 0.05-500 μM, 3-35 nM enzyme, 37°C, triplicate
T6 sequence (P42574 29-175 limits assumed): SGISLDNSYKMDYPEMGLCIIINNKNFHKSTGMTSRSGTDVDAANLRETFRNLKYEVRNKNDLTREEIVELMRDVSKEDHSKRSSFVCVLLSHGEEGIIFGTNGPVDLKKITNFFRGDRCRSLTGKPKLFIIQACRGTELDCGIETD
T6 sequence (P42574 176-277 limits assumed): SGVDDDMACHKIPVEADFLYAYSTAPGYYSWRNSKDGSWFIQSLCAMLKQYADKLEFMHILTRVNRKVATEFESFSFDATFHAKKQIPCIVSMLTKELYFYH

Sequence of human caspase-8 (Q14790 217-374 limits assumed): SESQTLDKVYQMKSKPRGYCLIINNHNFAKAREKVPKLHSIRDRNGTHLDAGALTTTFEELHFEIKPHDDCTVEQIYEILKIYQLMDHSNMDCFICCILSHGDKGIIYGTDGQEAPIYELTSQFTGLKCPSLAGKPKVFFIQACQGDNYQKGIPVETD
Sequence of human caspase-8 (Q14790 385-479 limits assumed): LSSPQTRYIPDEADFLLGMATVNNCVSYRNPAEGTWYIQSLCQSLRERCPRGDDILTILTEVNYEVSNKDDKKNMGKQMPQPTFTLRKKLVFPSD

Row | Substance | kcat/KM caspase-9 [1] | kcat/KM caspase-1 [2] | kcat/KM caspase-8 [3] | kcat/KM caspase-7 [4] | kcat/KM caspase-4 [5] | kcat/KM caspase-5 [6] | kcat/KM caspase-3 [7]
1 | Tyr-Val-Lys(tfa)-Asp | 250 M⁻¹ s⁻¹ | 28 100 M^-1s^-1 | 1 260 M^-1s^-1 | 200 M⁻¹ s⁻¹ | 660 M⁻¹ s⁻¹ | 1 360 M^-1s^-1 | 1 430 M^-1s^-1
2 | Val-Asp-His-Asp | 6 220 M^-1s^-1 | 6 950 M^-1s^-1 | 16 670 M^-1s^-1 | 910 M⁻¹ s⁻¹ | 880 M⁻¹ s⁻¹ | 4 830 M^-1s^-1 | 19 860 M^-1s^-1
3 | [Tle][Phe(2-Cl)]HD | 8 070 M^-1s^-1 | 31 900 M^-1s^-1 | 6 220 M^-1s^-1 | 350 M⁻¹ s⁻¹ | 4 030 M^-1s^-1 | 6 990 M^-1s^-1 | 26 070 M^-1s^-1
4 | Tyr-Val-His-Asp | 15 800 M^-1s^-1 | 140 500 M^-1s^-1 | 2 550 M^-1s^-1 | 150 M⁻¹ s⁻¹ | 2 920 M^-1s^-1 | 9 640 M^-1s^-1 | 1 530 M^-1s^-1
5 | VY(Bn)HD | 1 790 M^-1s^-1 | 7 300 M^-1s^-1 | 2 610 M^-1s^-1 | 180 M⁻¹ s⁻¹ | 350 M⁻¹ s⁻¹ | 660 M⁻¹ s⁻¹ | 6 900 M^-1s^-1
6 | Leu-Glu-Ser-Asp | 3550 M⁻¹ s⁻¹ | 20 000 M^-1s^-1 | 19 200 M^-1s^-1 | 20 M⁻¹ s⁻¹ | 3 390 M^-1s^-1 | 13500 M⁻¹ s⁻¹ | 950 M⁻¹ s⁻¹
7 | Thr-Trp-His-Asp | 4 810 M^-1s^-1 | 4 500 M^-1s^-1 | 1 100 M^-1s^-1 | 710 M⁻¹ s⁻¹ | 450 M⁻¹ s⁻¹ | 600 M⁻¹ s⁻¹ | 26 990 M^-1s^-1
8 | [2Nal]THD | 5 660 M^-1s^-1 | 146 200 M^-1s^-1 | 1 990 M^-1s^-1 | 70 M⁻¹ s⁻¹ | 2 450 M^-1s^-1 | 7 860 M^-1s^-1 | 830 M⁻¹ s⁻¹
9 | Trp-Gln-Val-Asp | 220 M⁻¹ s⁻¹ | 124 800 M^-1s^-1 | 3 870 M^-1s^-1 | 100 M⁻¹ s⁻¹ | 4 300 M^-1s^-1 | 5 100 M^-1s^-1 | 12 140 M^-1s^-1
10 | [Tle]MHD | 8 360 M^-1s^-1 | 23 100 M^-1s^-1 | 14 800 M^-1s^-1 | 280 M⁻¹ s⁻¹ | 2 020 M^-1s^-1 | 5 120 M^-1s^-1 | 20 740 M^-1s^-1
11 | Tyr-Thr-Ile-Asp | 280 M⁻¹ s⁻¹ | 48 100 M^-1s^-1 | 3 260 M^-1s^-1 | 1 440 M^-1s^-1 | 510 M⁻¹ s⁻¹ | 810 M⁻¹ s⁻¹ | 9 750 M^-1s^-1
12 | Val-Trp-His-Asp | 8 880 M^-1s^-1 | 7 700 M^-1s^-1 | 3 500 M^-1s^-1 | 210 M⁻¹ s⁻¹ | 1 010 M^-1s^-1 | 60 M⁻¹ s⁻¹ | 9 980 M^-1s^-1
13 | [Tle][Phg]HD | 9 870 M^-1s^-1 | 4 300 M^-1s^-1 | 2 030 M^-1s^-1 | 40 M⁻¹ s⁻¹ | 320 M⁻¹ s⁻¹ | 490 M⁻¹ s⁻¹ | 6 710 M^-1s^-1
14 | Phe-Glu-Ala-Asp | 530 M⁻¹ s⁻¹ | 57 100 M^-1s^-1 | 3 890 M^-1s^-1 | 180 M⁻¹ s⁻¹ | 870 M⁻¹ s⁻¹ | 6 720 M^-1s^-1 | 1 550 M^-1s^-1
15 | Pro-Tyr-His-Asp | 11 080 M^-1s^-1 | 10 900 M^-1s^-1 | 4 490 M^-1s^-1 | 90 M⁻¹ s⁻¹ | 330 M⁻¹ s⁻¹ | 1 110 M^-1s^-1 | 2 110 M^-1s^-1
